1 molecule from patent publication US20240058332A1, “CRAC CHANNEL INHIBITOR COMPOSITIONS” (CalciMedica, Inc., priority 2017, published 2024) can be followed below.

≈ marks a conversion by molar mass, not a printed value.

What all share (assay type): physicochemical
The nature of data set [1]: Initial formulations: Compound A saturation assay (HPLC) and appearance in template emulsion vehicles. Conditions: emulsion composition containing ≥10% egg lecithin, aqueous with cosolvent or surfactant or cyclodextrin, thermodynamic from solid. Here is the method:
Ten compositions were prepared using various template compositions, containing lecithin, soybean oil (SBO) or medium chain triglycerides (MCT), glycerin or sucrose (non-ionic tonicity agent), edetate disodium di-hydrate (EDTA, chelating agent) in deionized water. Compound A (Form A) was added and agitated to reach solubility equilibrium at ambient room temperature. Each formulation was prepared in the following steps: Compound A (5 mg) was dispersed in each template vehicle. The formulation were then homogenized and at room temperature for >24 h and then passed sample through 0.45 μm filter for analysis (HPLC).

Data set [2] in a line: Stability of Formulation F-9 (small scale), 2 weeks at 2-8° C. and 25° C. The following applies: F-9 emulsion, after 2 weeks at 2-8° C. and 25° C. Here is the method: Procedures: Compound A (Form A) was added to F-9 vehicle containing MCT/Egg/lecithin/Sucrose/EDTA in a plastic tube. The formulation was mixed until uniform and complete drug dissolution. The emulsion was sterilized through 0.2 μm membrane filter. The samples were placed at 2-8° C. and 25° C. for stability evaluation for 2 weeks. The samples were tested for appearance, pH, Compound A assay and purity by HPLC, mean droplet size and globule size distribution in lipid injectable emulsions (USP<729>) and the results are shown in Table 17.

Data set [3] can be described thus: Solubility of Compound A in F57, Method 6: Form B seeds added to GMP batch. The following applies: F57 emulsion (GMP batch), 2 °C, thermodynamic from solid; 2-8° C.; read-out: API solubility in F57. From the text: (§1) To investigate the causes of precipitation and determine the Compound A solubility in F57 vehicle, the following seven (7) methods were applied to accurately determine solubility of Compound A in F57: • Method 1: Formulate Compound A in F57 at varied concentrations using GMP grade of Compound A and excipients with the regular process • Method 2: Formulate Compound A in F57 by introducing Compound A into a pre-formed F57 vehicle • Method 3: Observe Compound A in the previously made batches which already had extended incubation • Method 4: Conduct “top-down” and a “bottom-up” solubility studies in F57 vehicle • Method 5: Agitate Compound A GMP batch of F57 to promote the dissolution-precipitation equilibrium • Method 6: Add extra Form B seeds to Compound A GMP batch of F57 to promote Compound A crystal growth and precipitation • Method 7: Add Form B seeds to the samples made in method 1 to promote Compound A crystal growth and precipitation
For solubility determination, a F57 sample (usually about 0.5 mL) was filtered through a 0.22 μm centrifuge filter (Costar Spin-X®+, P/N8169), the filtrate (free of any solid particle) was collected, diluted with isopropanol, and tested for Compound A concentration using the following HPLC method. […]

Data set [4] is described as follows: Emulsion stability 1 week at 40° C. (appearance, assay, Z-Ave, PFAT5). The following applies: emulsions at 2-8° C. and after 8 days at 40° C. Here is the method: Procedure: • Prepared all vehicles by mixing lipid and aqueous phase ingredients and homogenized. • Added Compound A (Form A) at 0.3% concentration in each vehicle. • Homogenized and mixed overnight until uniform or achieved equilibrium. • Filtered emulsion through 0.45 μm Nylon membrane filter. • Evaluated appearance, drug concentration by HPLC assay, average droplet size and PFAT5. • Selected the top 5-10 formulations achieving acceptance criteria initially. • Placed at 40° C. for up to 2 weeks to monitor emulsion stability. • Selected the top 3-5 formulations meeting the proposed requirements after 1-2 weeks at 40° C.
Methods: • Appearance: Record visual observation • Z-ave (nm): Measure mean oil droplet size by ZetaSizer (Malvern Instrument). Dilute 50 μL sample with 950 μL DI water at room temperature • Assay (%): Use the current HPLC method • Spin-X: Pass 0.5 mL emulsion through CoStar® Spin-X 0.2 μm Nylon filter (0.7 cm^2 surface area) at 3,144 G-force centrifuge for 60 sec at ambient room temperature. Evaluate completeness of emulsion passing through the filter.

Data set [5] in a line: Solubility of Compound A in F57, summary of all 7 methods. The following applies: F57, thermodynamic from solid, read-out: Measured Solubility.
Source text: The term “solubility” used herein is defined as Compound A concentration where Compound A has reached a dissolution-precipitation equilibrium in F57 at a selected temperature. […] On the other hand, if Compound A concentration is higher than the solubility, Compound A is expected to precipitate over time.
as §1
For solubility determination, a F57 sample (usually about 0.5 mL) was filtered through a 0.22 μm centrifuge filter (Costar Spin-X®+, P/N8169), the filtrate (free of any solid particle) was collected, diluted with isopropanol, and tested for Compound A concentration using the following HPLC method. Dissolution-precipitation equilibrium is reached once the measured filtrate concentration is constant, and that concentration can be regarded as the solubility.
Table 40 summarizes the general conditions used in the seven methods to promote the dissolution-precipitation equilibrium. Detailed procedures are described in each method section.
The general observation and findings by all 7 methods are summarized in the table 50, according to the detailed observation and discussion pertaining to each method.

Broadly, the solubility is the concentration that dissolves in the medium under given conditions. Regarding `Cc1cccc(F)c1C(=O)Nc1cnc(-c2cc3c(cc2Cl)OC(F)(F)O3)cn1` [Compound A, N-(5-(6-chloro-2,2-difluorobenzo[d][1,3]dioxol-5-yl)pyrazin-2-yl)-2-fluoro-6-methylbenzamide], the solubility was not below 2400 µg/mL in data set [1]; 1800 to 1900 µg/mL (≈ 4.27 to 4.5 mM) in data set [3]; 1800 to 1900 µg/mL (≈ 4.27 to 4.5 mM) in data set [5] (in F57, Method 2, Equilibrium reached); 1800 µg/mL (≈ 4.27 mM) in data set [5] (in F57, Method 4, Equilibrium reached); 1800 to 1900 µg/mL (≈ 4.27 to 4.5 mM) in data set [5] (in F57, Method 5, Equilibrium reached); 1800 to 1900 µg/mL (≈ 4.27 to 4.5 mM) in data set [5] (in F57, Method 6, Equilibrium reached). For the same molecule, in data set [5] (in F57, Method 7, Equilibrium reached), the solubility fell in the range of 1800 to 1900 µg/mL (≈ 4.27 to 4.5 mM). In addition, the “appearance and HPLC assay on stability” value in data set [2] is listed as “remained unchanged”. Further, in data set [4], the “% purity on stability” value was 99.9%.
